{"source": "patent US20200017496A1", "about": "(priority 2017, published 2020)", "key": {"[1]": {"test_system": "Proteus mirabilis (PMI) isolates", "experiment": "microbe, parasite or virus in culture", "format": "cell-based", "conditions": "for MIC ATB in combination: AF1 @ 4 μg/mL", "description": "(§1) Method 2: MIC of Compounds Alone and Combined with Antibacterials Against Bacterial Isolates.\n(§2) Compounds of the present invention were assessed against genotyped bacterial strains (Table 3, 4) alone or in combination with an antibacterial (Table 2). […] Log phase bacterial suspensions were adjusted to a final density of 5·10^5 CFU/mL in cation-adjusted Mueller-Hinton broth (ca-MHB; Becton-Dickinson and Company) and added to each well (98 μL). Microplates were incubated for 16-20 h at 35° C. in ambient air. The MIC of the compounds was defined as the lowest concentration of said compounds that prevented bacterial growth as read by visual inspection. The MIC of ATB at each compound concentration was defined as the lowest concentration of ATB that prevented bacterial growth as read by visual inspection."}, "[2]": {"test_system": "Escherichia coli (ECO) isolates", "experiment": "MIC of compounds alone and combined with antibacterials, broth microdilution (CLSI)", "format": "cell-based", "conditions": "for MIC: Escherichia coli", "description": "as §1, §2"}}, "note": "Where two headings read alike, the source gives them in different places.", "data": [{"smiles": "CC1(C)S[C@@H]2[C@H](NC(=O)[C@H](N)c3ccc(O)cc3)C(=O)N2[C@H]1C(=O)O", "note": "[AMX, Amoxicillin]", "values": [{"measurement": "MIC", "setting": "[1]", "value": 128, "unit": "µg/mL"}, {"measurement": "MIC ATB in combination", "setting": "[1]; PMI UFR82", "value": 8, "unit": "µg/mL"}, {"measurement": "MIC ATB in combination", "setting": "[1]; PMI UFR120", "value": "<=0.25 μg/mL"}, {"measurement": "MIC ATB in combination", "setting": "[1]; PMI UFR121", "value": "<=0.25 μg/mL"}, {"measurement": "MIC ATB in combination", "setting": "[1]; PMI UFR122", "value": "<=0.25 μg/mL"}, {"measurement": "MIC ATB in combination", "setting": "[1]; PMI UFR123", "value": "<=0.25 μg/mL"}, {"measurement": "MIC ATB in combination", "setting": "[1]; PMI UFR124", "value": "<=0.25 μg/mL"}, {"measurement": "MIC ATB in combination", "setting": "[1]; PMI UFR125", "value": "<=0.25 μg/mL"}, {"measurement": "MIC ATB in combination", "setting": "[1]; PMI UFR126", "value": 4, "unit": "µg/mL"}, {"measurement": "MIC ATB in combination", "setting": "[1]; PMI UFR127", "value": 4, "unit": "µg/mL"}, {"measurement": "MIC ATB in combination", "setting": "[1]; PMI UFR129", "value": 8, "unit": "µg/mL"}, {"measurement": "MIC ATB in combination", "setting": "[1]; PMI UFR130", "value": 8, "unit": "µg/mL"}, {"measurement": "MIC ATB in combination", "setting": "[1]; PMI UFR237", "value": 16, "unit": "µg/mL"}, {"measurement": "MIC", "setting": "[1]; Proteus mirabilis", "value": "> 128", "unit": "µg/mL"}, {"measurement": "MIC", "setting": "[1]; Proteus mirabilis, strain PMI UFR82 (CMY-2), ATB alone, read-out: MIC", "value": 256, "unit": "µg/mL"}, {"measurement": "MIC", "setting": "[1]; Proteus mirabilis, strain PMI UFR120 (TEM-1, SHV-11, CTX-M-14), CLA @ 4 μg/ml+ ATB, read-out: MIC", "value": 8, "unit": "µg/mL"}, {"measurement": "MIC", "setting": "[1]; Proteus mirabilis, strain PMI UFR121 (TEM-1, TEM-52), CLA @ 4 μg/ml+ ATB, read-out: MIC", "value": 4, "unit": "µg/mL"}, {"measurement": "MIC", "setting": "[1]; Proteus mirabilis, strain PMI UFR122 (TEM-1, CTX-M-15), CLA @ 4 μg/ml+ ATB, read-out: MIC", "value": 8, "unit": "µg/mL"}, {"measurement": "MIC", "setting": "[1]; Proteus mirabilis, strain PMI UFR123 (CTX-M-1), CLA @ 4 μg/ml+ ATB, read-out: MIC", "value": 16, "unit": "µg/mL"}, {"measurement": "MIC", "setting": "[1]; Proteus mirabilis, strain PMI UFR125 (CTX-M-71), CLA @ 4 μg/ml+ ATB, read-out: MIC", "value": 4, "unit": "µg/mL"}, {"measurement": "MIC", "setting": "[1]; Proteus mirabilis, strain PMI UFR126 (TEM-2, PER-1), CLA @ 4 μg/ml+ ATB, read-out: MIC", "value": 16, "unit": "µg/mL"}, {"measurement": "MIC", "setting": "[1]; Proteus mirabilis, strain PMI UFR127 (VEB-1), CLA @ 4 μg/ml+ ATB, read-out: MIC", "value": 32, "unit": "µg/mL"}, {"measurement": "MIC", "setting": "[1]; Proteus mirabilis, strain PMI UFR129 (TEM-1, VEB-6), CLA @ 4 μg/ml+ ATB, read-out: MIC", "value": 2, "unit": "µg/mL"}, {"measurement": "MIC", "setting": "[1]; Proteus mirabilis, strain PMI UFR237 (VEB-6), CLA @ 4 μg/ml+ ATB, read-out: MIC", "value": 4, "unit": "µg/mL"}, {"measurement": "MIC ATB in combination", "setting": "[2]", "value": 128, "unit": "µg/mL"}, {"measurement": "MIC ATB in combination", "setting": "[2]; ECO 5302, AF1 @ 4 μg/mL", "value": 256, "unit": "µg/mL"}, {"measurement": "MIC ATB in combination", "setting": "[2]; ECO 131119, AF1 @ 4 μg/mL", "value": 16, "unit": "µg/mL"}, {"measurement": "MIC ATB in combination", "setting": "[2]; ECO 180070, AF1 @ 4 μg/mL", "value": "<=1 μg/mL"}, {"measurement": "MIC ATB in combination", "setting": "[2]; ECO 190314, AF1 @ 4 μg/mL", "value": "<=1 μg/mL"}, {"measurement": "MIC ATB in combination", "setting": "[2]; ECO 190317, AF1 @ 4 μg/mL", "value": 64, "unit": "µg/mL"}, {"measurement": "MIC ATB in combination", "setting": "[2]; ECO 190457, AF1 @ 4 μg/mL", "value": 64, "unit": "µg/mL"}, {"measurement": "MIC ATB in combination", "setting": "[2]; ECO 190549, AF1 @ 4 μg/mL", "value": "<=1 μg/mL"}, {"measurement": "MIC ATB in combination", "setting": "[2]; ECO 200159, AF1 @ 4 μg/mL", "value": "<=1 μg/mL"}, {"measurement": "MIC ATB in combination", "setting": "[2]; ECO 200259, AF1 @ 4 μg/mL", "value": "<=1 μg/mL"}, {"measurement": "MIC ATB in combination", "setting": "[2]; ECO 200344, AF1 @ 4 μg/mL", "value": "<=1 μg/mL"}, {"measurement": "MIC ATB in combination", "setting": "[2]; ECO 260096, AF1 @ 4 μg/mL", "value": "<=1 μg/mL"}, {"measurement": "MIC ATB in combination", "setting": "[2]; ECO 260304, AF1 @ 4 μg/mL", "value": "<=1 μg/mL"}, {"measurement": "MIC ATB in combination", "setting": "[2]; ECO 260508, AF1 @ 4 μg/mL", "value": 64, "unit": "µg/mL"}, {"measurement": "MIC ATB in combination", "setting": "[2]; ECO RGN238, AF1 @ 4 μg/mL", "value": 256, "unit": "µg/mL"}, {"measurement": "MIC ATB in combination", "setting": "[2]; ECO UFR15, AF1 @ 4 μg/mL", "value": 16, "unit": "µg/mL"}, {"measurement": "MIC ATB in combination", "setting": "[2]; ECO UFR18, AF1 @ 4 μg/mL", "value": 64, "unit": "µg/mL"}, {"measurement": "MIC ATB in combination", "setting": "[2]; ECO UFR19, AF1 @ 4 μg/mL", "value": 64, "unit": "µg/mL"}, {"measurement": "MIC ATB in combination", "setting": "[2]; ECO UFR61O, AF1 @ 4 μg/mL", "value": 64, "unit": "µg/mL"}, {"measurement": "MIC ATB in combination", "setting": "[2]; ECO UFR62, AF1 @ 4 μg/mL", "value": 16, "unit": "µg/mL"}, {"measurement": "MIC ATB in combination", "setting": "[2]; ECO UFR86, AF1 @ 4 μg/mL", "value": 2, "unit": "µg/mL"}, {"measurement": "MIC ATB in combination", "setting": "[2]; ECO UFR174, AF1 @ 4 μg/mL", "value": 32, "unit": "µg/mL"}, {"measurement": "MIC ATB in combination", "setting": "[2]; ECO UFR175, AF1 @ 4 μg/mL", "value": 32, "unit": "µg/mL"}, {"measurement": "MIC ATB in combination", "setting": "[2]; ECO UFR176, AF1 @ 4 μg/mL", "value": 32, "unit": "µg/mL"}, {"measurement": "MIC ATB in combination", "setting": "[2]; ECO UFR184, AF1 @ 4 μg/mL", "value": 32, "unit": "µg/mL"}, {"measurement": "MIC ATB in combination", "setting": "[2]; ECO UFR185, AF1 @ 4 μg/mL", "value": 256, "unit": "µg/mL"}, {"measurement": "MIC ATB in combination", "setting": "[2]; ECO UFR186, AF1 @ 4 μg/mL", "value": 16, "unit": "µg/mL"}, {"measurement": "MIC ATB in combination", "setting": "[2]; ECO UFR187, AF1 @ 4 μg/mL", "value": 16, "unit": "µg/mL"}, {"measurement": "MIC ATB in combination", "setting": "[2]; ECO UFR189, AF1 @ 4 μg/mL", "value": 4, "unit": "µg/mL"}, {"measurement": "MIC ATB in combination", "setting": "[2]; ECO UFR190, AF1 @ 4 μg/mL", "value": 8, "unit": "µg/mL"}, {"measurement": "MIC ATB in combination", "setting": "[2]; ECO UFR191, AF1 @ 4 μg/mL", "value": 8, "unit": "µg/mL"}, {"measurement": "MIC ATB in combination", "setting": "[2]; ECO UFR207, AF1 @ 4 μg/mL", "value": 32, "unit": "µg/mL"}, {"measurement": "MIC ATB in combination", "setting": "[2]; ECO UFR208, AF1 @ 4 μg/mL", "value": 256, "unit": "µg/mL"}, {"measurement": "MIC ATB in combination", "setting": "[2]; ECO UFR209, AF1 @ 4 μg/mL", "value": 4, "unit": "µg/mL"}, {"measurement": "MIC ATB in combination", "setting": "[2]; ECO UFR210, AF1 @ 4 μg/mL", "value": "<=1 μg/mL"}, {"measurement": "MIC ATB in combination", "setting": "[2]; ECO UFR211, AF1 @ 4 μg/mL", "value": "<=1 μg/mL"}, {"measurement": "MIC ATB in combination", "setting": "[2]; ECO UFR212, AF1 @ 4 μg/mL", "value": 64, "unit": "µg/mL"}, {"measurement": "MIC ATB in combination", "setting": "[2]; ECO UFR218, AF1 @ 4 μg/mL", "value": 8, "unit": "µg/mL"}, {"measurement": "MIC", "setting": "[2]; strain ECO 131119 (TEM-1, OXA-48), ATB alone", "value": "> 1020", "unit": "µg/mL"}, {"measurement": "MIC", "setting": "[2]; strain ECO 131119 (TEM-1, OXA-48), CLA @ 4 μg/ml+ ATB", "value": "> 512", "unit": "µg/mL"}, {"measurement": "MIC", "setting": "[2]; strain ECO 180070 (TEM-1, CTX-M-15), CLA @ 4 μg/ml+ ATB", "value": 16, "unit": "µg/mL"}, {"measurement": "MIC", "setting": "[2]; strain ECO 190314 (CTX-M-1), CLA @ 4 μg/ml+ ATB", "value": 8, "unit": "µg/mL"}, {"measurement": "MIC", "setting": "[2]; strain ECO 190317 (TEM-1, SHV-12, CTX-M-15, OXA-1), ATB alone", "value": "> 1020", "unit": "µg/mL"}, {"measurement": "MIC", "setting": "[2]; strain ECO 190317 (TEM-1, SHV-12, CTX-M-15, OXA-1), CLA @ 4 μg/ml+ ATB", "value": 64, "unit": "µg/mL"}, {"measurement": "MIC", "setting": "[2]; strain ECO 190549 (CTX-M-1), CLA @ 4 μg/ml+ ATB", "value": 8, "unit": "µg/mL"}, {"measurement": "MIC", "setting": "[2]; strain ECO 200159 (TEM-1, CTX-M-14), CLA @ 4 μg/ml+ ATB", "value": 8, "unit": "µg/mL"}, {"measurement": "MIC", "setting": "[2]; strain ECO 200259 (CTX-M-14), CLA @ 4 μg/ml+ ATB", "value": 8, "unit": "µg/mL"}, {"measurement": "MIC", "setting": "[2]; strain ECO 200344 (CTX-M-1), CLA @ 4 μg/ml+ ATB", "value": 16, "unit": "µg/mL"}]}]}
